In US6306846A, “Anti-inflammatory and anti-ulcer compounds and process” (priority 1995, dated 2001):

Experiments:
[1] = Anti-inflammatory test models, overall statement; assay type: in vivo, rat; conditions: using only one test model
Description: In order to test the anti-inflammatory activities of my copper coordination compounds, the following test models were employed:
(§1) (1) Carrageen in Foot Edema Model as described in Experentia, 6, pp. 469-71, "Zur Frage des Mechanis Mos der Hemmung des Bindegebswachstums durch Cortisone" (1950);
(2) Cotton Wad Granuloma Model as described in J. Pharmacol. Expt'l. Ther., 141, pp. 369-76, "Anti-inflammatory and Antipyretic Activities of Indomethacin, 9-(p-chlorobenzoyl)-5-Methoxy-2-Methyl-Indole-3-Acetic Acid" (1963); and
(3) Polyarthritis Model as described in Nature, 224, pp. 1320-21, "Effect of Prostaglandin E2 on Adjuvant Arthritis" (1969).

[2] = in vivo; conditions: for TI CFE / TI PA / selectivity ratio: ratio of lethal dose to effective dose
Description: In addition to the foregoing anti-inflammatory and anti-ulcer tests, several LD50 tests [performed in accordance with Miller et al, Proceed. of The Society of Expt'l. Medicine, 57, p.

[3] = Carrageenin Foot Edema Model; assay type: in vivo, rat (male, Sprague Dawley); conditions: hydrocortisone comparison; model not given
Protocol: as §1
The foregoing literature references were followed in the following tests unless otherwise stated and they are incorporated by reference herein. Each test model will only be briefly described. Each test model is a recognized and accepted model for testing drugs for the treatment of arthritis.
In this test model test rats were injected with carrageenin in a hind paw one hour after administration of the copper coordination compound. The carrageenin induced inflammation. The rats were male, of the Sprague Dawley variety and weighed on the average 120 grams. The copper coordination compounds were first introduced subcutaneously. The dosages were compounded as follows:
The suspending agent was Tween 80, a nonionic surfactant sold by the Atlas Powder Company. A full description of it is contained at p. 648 of Remingtons Practice of Pharmacy (11th ed., Martin & Cook, The Mack Publishing Co., Easton Pa. 1956). Generally they may be described as a complex mixture of polyoxyethylene ethers of mixed oleic esters of sorbitol anhydrides. The initial screening dosage was 25 mg of the copper coordination compound given in one injection to ten rats. Compounds which were active received further testing at 5.0 mg and lower dosages. Each dosage was administered to at least ten rats. A dose was rated active if it caused a significant decrease (P<0.05) in the circumference of the feet injected with carrageenin six hours after administration. […] As a reference standard, saline solution plus suspending agent was subcutaneously administered to each of the ten rats.

N[C@@H](Cc1c[nH]c2ccccc12)C(=O)[O-].N[C@@H](Cc1c[nH]c2ccccc12)C(=O)[O-].[Cu+2] (racemic) [Example 16, Bis(D,L-tryptophanato(O,N)copper(II)]
anti-inflammatory activity at the initial screening tests [1]: no anti-inflammatory activity

NC(Cc1c[nH]c2ccccc12)C(=O)[O-].NC(Cc1c[nH]c2ccccc12)C(=O)[O-].[Cu+2] [Example 1, Bis-L-tryptophanato(O,N)copper(II)]
anti-inflammatory activity at the initial screening tests [1]: no anti-inflammatory activity

Nc1ccccc1C(=O)[O-].Nc1ccccc1C(=O)[O-].[Cu+2] [Example 3, Bisanthranilato(O,N)copper(II)]
LD50 ([2]; SC): 750 ± 106 mpk | TI CFE ([2]; CFE (carrageenin foot edema)): 150 | TI PA ([2]; PA (polyarthritis)): 750 | % potency compared with hydrocortisone [3]: 60%

CC(C)c1cc(C(=O)[O-])c(O)c(C(C)C)c1.CC(C)c1cc(C(=O)[O-])c(O)c(C(C)C)c1.[Cu+2] [Example 4]
LD50 ([2]; SC): 240 ± 33 mpk | TI CFE ([2]; CFE (carrageenin foot edema)): 48 | TI PA ([2]; PA (polyarthritis)): 240 | % potency compared with hydrocortisone [3]: 50%

CC(=O)Oc1ccccc1C(=O)[O-].CC(=O)Oc1ccccc1C(=O)[O-].CC(=O)Oc1ccccc1C(=O)[O-].CC(=O)Oc1ccccc1C(=O)[O-].[Cu+2].[Cu+2] [Example 5, Tetra(μ-acetylsalicylato)biscopper(II)]
LD50 ([2]; SC): 760 ± 100 mpk | TI CFE ([2]; CFE (carrageenin foot edema)): 150 | TI PA ([2]; PA (polyarthritis)): 760 | % potency compared with hydrocortisone [3]: 130%

CC(=O)Oc1ccccc1C(=O)O [aspirin, acetylsalicylic acid]
LD50 ([2]; in vivo): 790 mg/kg | LD50 ([2]; in vivo, po): 1500 mg/kg | % potency compared with hydrocortisone [3]: 6%

CC(=O)[O-].CC(=O)[O-].[Cu+2] [cupric acetate]
LD50 ([2]; SC): 350 mpk | TI CFE ([2]; CFE (carrageenin foot edema)): 70 | TI PA ([2]; PA (polyarthritis)): 0 | % potency compared with hydrocortisone [3]: 340%

O=C(O)c1cccnc1Nc1cccc(C(F)(F)F)c1 [tpan, 2[3(trifluoro-methyl)phenyl]aminonicotinic acid]
selectivity ratio ([2]; in vivo, TI CFE, CFE (carrageenin foot edema)): 15 | selectivity ratio ([2]; in vivo, TI PA, PA (polyarthritis)): 74 | LD50 ([2]; in vivo, po): 370 ± 25 mg/kg | % potency compared with hydrocortisone [3]: 31%

(3-p-chlorophenyl-3,4,5,6-tetrahydro-β-carboline-5-carboxylato)2n-(aqua)2n -copper(II)n [Example 30]
anti-inflammatory activity at the initial screening tests [1]: no anti-inflammatory activity

(17-Hydroxy-3-oxo-17α-pregn-4,6-diene-21-carboxalato)2n -(aqua)2n -copper(II)n [Example 41]
anti-inflammatory activity at the initial screening tests [1]: no anti-inflammatory activity

(D-penicillaminato)2n -(aqua)2n -copper(II)n [Example 8]
anti-inflammatory activity at the initial screening tests [1]: no anti-inflammatory activity

[2[3(trifluoromethyl)phenyl]aminonicotinato]2n -(aqua)n -copper(II)n [Example 6]
LD50 ([2]; SC): 650 ± 80 mpk | TI CFE ([2]; CFE (carrageenin foot edema)): 130 | TI PA ([2]; PA (polyarthritis)): 650 | % potency compared with hydrocortisone [3]: 180%
